According to patent publication US20260028354A1, “TETRAHYDRONAPHTHALENE DERIVATIVES AS ESTROGEN RECEPTOR DEGRADERS” (REGENT OF THE UNIVERSITY OF MICHIGAN, priority 2022, published 2026):

Test: Western blot analysis for "B" compounds
Assay type: cell-based
Conditions: read-out: Traditional Western Degradation Potency (DC50)
How it was run: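 Compound-treated cells lysed in RIPA buffer with protease inhibitors; equal protein (BCA) run on 10% SDS-PAGE, transferred to PVDF and probed with target antibodies. Band intensities quantified by densitometry and normalized to GAPDH.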

SMILES	DC50
O=C1CCC(N2C(=O)c3cc4c(cc3C2=O)CN(CC2CN(C(=O)C3CN(c5ccc([C@@H]6c7ccc(O)cc7CC[C@@H]6c6ccccc6)cc5)C3)C2)C4)C(=O)N1 (stereo partly drawn) [Compound B263, 2-(2,6-dioxopiperidin-3-yl)-6-((1-(1-(4-((1R,2S)-6-hydroxy-2-phenyl-1,2,3,4-tetrahydronaphthalen-1-yl)phenyl)azetidine-3-carbonyl)azetidin-3-yl)methyl)-6,7-dihydropyrrolo[3,4-f]isoindole-1,3(2H,5H)-dione]	> 100 nM
O=C1CCC(N2C(=O)c3cc4c(cc3C2=O)CN(CC2CCN(C(=O)C3CN(c5ccc([C@@H]6c7ccc(O)cc7CC[C@@H]6c6ccccc6)cc5)C3)CC2)C4)C(=O)N1 (stereo partly drawn) [Compound B264, 2-(2,6-dioxopiperidin-3-yl)-6-((1-(1-(4-((1R,2S)-6-hydroxy-2-phenyl-1,2,3,4-tetrahydronaphthalen-1-yl)phenyl)azetidine-3-carbonyl)piperidin-4-yl)methyl)-6,7-dihydropyrrolo[3,4-f]isoindole-1,3(2H,5H)-dione]	> 100 nM
O=C1CCC(N2C(=O)c3cc4c(cc3C2=O)CN(CC2(F)CCN(C(=O)C3(F)CN(c5ccc([C@@H]6c7ccc(O)cc7CC[C@@H]6c6ccccc6)cc5)C3)CC2)C4)C(=O)N1 (stereo partly drawn) [Compound B265, 2-(2,6-dioxopiperidin-3-yl)-6-((4-fluoro-1-(3-fluoro-1-(4-((1R,2S)-6-hydroxy-2-phenyl-1,2,3,4-tetrahydronaphthalen-1-yl)phenyl)azetidine-3-carbonyl)piperidin-4-yl)methyl)-6,7-dihydropyrrolo[3,4-f]isoindole-1,3(2H,5H)-dione]	> 100 nM
O=C1CCC(N2C(=O)c3cc4c(cc3C2=O)CN(CC2CCN(C(=O)C3(F)CN(c5ccc([C@@H]6c7ccc(O)cc7CC[C@@H]6c6ccccc6)cc5)C3)CC2)C4)C(=O)N1 (stereo partly drawn) [Compound B266, 2-(2,6-dioxopiperidin-3-yl)-6-((1-(3-fluoro-1-(4-((1R,2S)-6-hydroxy-2-phenyl-1,2,3,4-tetrahydronaphthalen-1-yl)phenyl)azetidine-3-carbonyl)piperidin-4-yl)methyl)-6,7-dihydropyrrolo[3,4-f]isoindolc-1,3(2H,5H)-dionc]	> 100 nM
O=C1CCC(N2C(=O)c3cc4c(cc3C2=O)CN(CC2(F)CCN(C(=O)C3CCN(c5ccc([C@@H]6c7ccc(O)cc7CC[C@@H]6c6ccccc6)cc5)CC3)CC2)C4)C(=O)N1 (stereo partly drawn) [Compound B267, 2-(2,6-dioxopiperidin-3-yl)-6-((4-fluoro-1-(1-(4-((1R,2S)-6-hydroxy-2-phenyl-1,2,3,4-tetrahydronaphthalen-1-yl)phenyl)piperidine-4-carbonyl)piperidin-4-yl)methyl)-6,7-dihydropyrrolo[3,4-f]isoindole-1,3(2H,5H)-dione]	> 100 nM
O=C1CCC(N2C(=O)c3cc4c(cc3C2=O)CN(CC2(F)CN(C(=O)C3CCN(c5ccc([C@@H]6c7ccc(O)cc7CC[C@@H]6c6ccccc6)cc5)CC3)C2)C4)C(=O)N1 (stereo partly drawn) [Compound B268, 2-(2,6-dioxopiperidin-3-yl)-6-((3-fluoro-1-(1-(4-((1R,2S)-6-hydroxy-2-phenyl-1,2,3,4-tetrahydronaphthalen-1-yl)phenyl)piperidine-4-carbonyl)azetidin-3-yl)methyl)-6,7-dihydropyrrolo[3,4-f]isoindole-1,3(2H,5H)-dione]	> 100 nM
O=C1CCC(N2C(=O)c3cc4c(cc3C2=O)CN(CC2CCN(C(=O)C3(F)CCN(c5ccc([C@@H]6c7ccc(O)cc7CC[C@@H]6c6ccccc6)cc5)CC3)CC2)C4)C(=O)N1 (stereo partly drawn) [Compound B269, 2-(2,6-dioxopiperidin-3-yl)-6-((1-(4-fluoro-1-(4-((1R,2S)-6-hydroxy-2-phenyl-1,2,3,4-tetrahydronaphthalen-1-yl)phenyl)piperidine-4-carbonyl)piperidin-4-yl)methyl)-6,7-dihydropyrrolo[3,4-f]isoindole-1,3(2H,5H)-dione]	> 100 nM
O=C1CCC(N2C(=O)c3cc4c(cc3C2=O)CN(CC2(F)CCN(CC3CCN(c5ccc([C@@H]6c7ccc(O)cc7CC[C@@H]6c6ccccc6)cc5)CC3)CC2)C4)C(=O)N1 (stereo partly drawn) [Compound B270, 2-(2,6-dioxopiperidin-3-yl)-6-((4-fluoro-1-((1-(4-((1R,2S)-6-hydroxy-2-phenyl-1,2,3,4-tetrahydronaphthalen-1-yl)phenyl)piperidin-4-yl)methyl)piperidin-4-yl)methyl)-6,7-dihydropyrrolo[3,4-f]isoindole-1,3(2H,5H)-dione]	> 100 nM
O=C1CCC(N2C(=O)c3cc4c(cc3C2=O)CN(CC2(F)CN(CC3CCN(c5ccc([C@@H]6c7ccc(O)cc7CC[C@@H]6c6ccccc6)cc5)CC3)C2)C4)C(=O)N1 (stereo partly drawn) [Compound B271, 2-(2,6-dioxopiperidin-3-yl)-6-((3-fluoro-1-((1-(4-((1R,2S)-6-hydroxy-2-phenyl-1,2,3,4-tetrahydronaphthalen-1-yl)phenyl)piperidin-4-yl)methyl)azetidin-3-yl)methyl)-6,7-dihydropyrrolo[3,4-f]isoindole-1,3(2H,5H)-dione]	> 100 nM
O=C1CCC(N2C(=O)c3cc4c(cc3C2=O)CN(CC(=O)N2CCC3(CC2)CCN(c2ccc([C@@H]5c6ccc(O)cc6CC[C@@H]5c5ccc(F)cc5)cc2)CC3)C4)C(=O)N1 (stereo partly drawn) [Compound B272, 2-(2,6-dioxopiperidin-3-yl)-6-(2-(9-(4-((1R,2S)-2-(4-fluorophenyl)-6-hydroxy-1,2,3,4-tetrahydronaphthalen-1-yl)phenyl)-3,9-diazaspiro[5.5]undecan-3-yl)-2-oxoethyl)-6,7-dihydropyrrolo[3,4-f]isoindole-1,3(2H,5H)-dione]	10 to 100 nM
O=C1CCC(N2C(=O)c3cc4c(cc3C2=O)CN(CC2CCN(CC3CCN(c5ccc([C@@H]6c7ccc(O)cc7CC[C@@H]6c6ccccc6)cc5)CC3)CC2)C4)C(=O)N1 (stereo partly drawn) [Compound B273, 2-(2,6-dioxopiperidin-3-yl)-6-((1-((1-(4-((1R,2S)-6-hydroxy-2-phenyl-1,2,3,4-tetrahydronaphthalen-1-yl)phenyl)piperidin-4-yl)methyl)piperidin-4-yl)methyl)-6,7-dihydropyrrolo[3,4-f]isoindole-1,3(2H,5H)-dione]	> 100 nM
O=C1CCC(N2C(=O)c3cc4c(cc3C2=O)CN(CC2CN(CC3CCN(c5ccc([C@@H]6c7ccc(O)cc7CC[C@@H]6c6ccccc6)cc5)CC3)C2)C4)C(=O)N1 (stereo partly drawn) [Compound B274, 2-(2,6-dioxopiperidin-3-yl)-6-((1-((1-(4-((1R,2S)-6-hydroxy-2-phenyl-1,2,3,4-tetrahydronaphthalen-1-yl)phenyl)piperidin-4-yl)methyl)azetidin-3-yl)methyl)-6,7-dihydropyrrolo[3,4-f]isoindole-1,3(2H,5H)-dione]	> 100 nM
O=C1CCC(N2C(=O)c3cc4c(cc3C2=O)CN(CC(=O)N2CCC3(CC2)CC(Oc2ccc([C@@H]5c6ccc(O)cc6CC[C@@H]5c5ccccc5)cc2)C3)C4)C(=O)N1 (stereo partly drawn) [Compound B275, 2-(2,6-dioxopiperidin-3-yl)-6-(2-(2-(4-((1R,2S)-6-hydroxy-2-phenyl-1,2,3,4-tetrahydronaphthalen-1-yl)phenoxy)-7-azaspiro[3.5]nonan-7-yl)-2-oxoethyl)-6,7-dihydropyrrolo[3,4-f]isoindole-1,3(2H,5H)-dione]	> 100 nM
O=C1CCC(N2C(=O)c3cc4c(cc3C2=O)CN(CC(=O)N2CC3(CC(Oc5ccc([C@@H]6c7ccc(O)cc7CC[C@@H]6c6ccccc6)cc5)C3)C2)C4)C(=O)N1 (stereo partly drawn) [Compound B276, 2-(2,6-dioxopiperidin-3-yl)-6-(2-(6-(4-((1R,2S)-6-hydroxy-2-phenyl-1,2,3,4-tetrahydronaphthalen-1-yl)phenoxy)-2-azaspiro[3.3]heptan-2-yl)-2-oxoethyl)-6,7-dihydropyrrolo[3,4-f]isoindole-1,3(2H,5H)-dione]	> 100 nM
O=C1CCC(N2C(=O)c3cc4c(cc3C2=O)CN(C(=O)CN2CCC3(CC2)CC(Oc2ccc([C@@H]5c6ccc(O)cc6CC[C@@H]5c5ccccc5)cc2)C3)C4)C(=O)N1 (stereo partly drawn) [Compound B277, 2-(2,6-dioxopiperidin-3-yl)-6-(2-(2-(4-((1R,2S)-6-hydroxy-2-phenyl-1,2,3,4-tetrahydronaphthalen-1-yl)phenoxy)-7-azaspiro[3.5]nonan-7-yl)acetyl)-6,7-dihydropyrrolo[3,4-f]isoindole-1,3(2H,5H)-dione]	> 100 nM
O=C1CCC(N2C(=O)c3cc4c(cc3C2=O)CN(CC(=O)N2CC3(CCC(Oc5ccc([C@@H]6c7ccc(O)cc7CC[C@@H]6c6ccccc6)cc5)CC3)C2)C4)C(=O)N1 (stereo partly drawn) [Compound B278, 2-(2,6-dioxopiperidin-3-yl)-6-(2-(7-(4-((1R,2S)-6-hydroxy-2-phenyl-1,2,3,4-tetrahydronaphthalen-1-yl)phenoxy)-2-azaspiro[3.5]nonan-2-yl)-2-oxoethyl)-6,7-dihydropyrrolo[3,4-f]isoindole-1,3(2H,5H)-dione]	> 100 nM
O=C1CCC(N2C(=O)c3cc4c(cc3C2=O)CN(CC(=O)N2CCC3(CCC(Oc5ccc([C@@H]6c7ccc(O)cc7CC[C@@H]6c6ccccc6)cc5)CC3)CC2)C4)C(=O)N1 (stereo partly drawn) [Compound B279, 2-(2,6-dioxopiperidin-3-yl)-6-(2-(9-(4-((1R,2S)-6-hydroxy-2-phenyl-1,2,3,4-tetrahydronaphthalen-1-yl)phenoxy)-3-azaspiro[5.5]undecan-3-yl)-2-oxoethyl)-6,7-dihydropyrrolo[3,4-f]isoindole-1,3(2H,5H)-dione]	> 100 nM
O=C1CCC(N2C(=O)c3cc4c(cc3C2=O)CN(C2CCN(C(=O)C3(F)CCN(c5ccc([C@@H]6c7ccc(O)cc7CC[C@@H]6c6ccccc6)cc5)CC3)CC2)C4)C(=O)N1 (stereo partly drawn) [Compound B280, 2-(2,6-dioxopiperidin-3-yl)-6-(1-(4-fluoro-1-(4-((1R,2S)-6-hydroxy-2-phenyl-1,2,3,4-tetrahydronaphthalen-1-yl)phenyl)piperidine-4-carbonyl)piperidin-4-yl)-6,7-dihydropyrrolo[3,4-f]isoindole-1,3(2H,5H)-dione]	> 100 nM
